This is an account of results in EP3800188A1, “SUBSTITUTED PYRAZOLOPYRIMIDINES AS IRAK4 INHIBITORS” (Bayer AG, priority 2019, dated 2021).

For the test, the target named is T1, human IRAK4 (Homo sapiens, UniProt Q9NWZ3).
T1 construct: GST (N); made in house; host or cells: baculovirus-infected Hi5 (BTI-TN-5B1-4) insect cells
T1 sequence (Q9NWZ3 1-460): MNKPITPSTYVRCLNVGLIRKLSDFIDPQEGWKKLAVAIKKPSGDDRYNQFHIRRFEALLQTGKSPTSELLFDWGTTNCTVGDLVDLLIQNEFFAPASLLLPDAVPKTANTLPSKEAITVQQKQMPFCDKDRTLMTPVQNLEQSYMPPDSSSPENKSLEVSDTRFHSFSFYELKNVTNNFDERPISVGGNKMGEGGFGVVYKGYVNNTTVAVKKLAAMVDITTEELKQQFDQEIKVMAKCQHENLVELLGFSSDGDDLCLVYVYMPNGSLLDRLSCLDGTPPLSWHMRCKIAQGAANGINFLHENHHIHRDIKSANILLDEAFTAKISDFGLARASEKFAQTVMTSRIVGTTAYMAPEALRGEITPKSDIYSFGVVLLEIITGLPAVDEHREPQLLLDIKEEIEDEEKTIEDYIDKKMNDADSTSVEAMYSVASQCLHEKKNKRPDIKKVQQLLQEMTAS
Kind of test: Human IRAK4 kinase activity inhibition assay (IRAK4 TR-FRET assay). It is filed as biochemical. The note with it: 1 mM ATP, GST-human IRAK4, average or median values. Here is the method:
The IRAK4-inhibitory activity of the inventive substances was measured in the IRAK4 TR-FRET assay (TR-FRET = Time Resolved Fluorescence Resonance Energy Transfer) described hereinafter.
Recombinant fusion protein from N-terminal GST (glutathione S-transferase) and human IRAK4, expressed in baculovirus-infected insect cells (Hi5, BTI-TN-5B1-4, cell line purchased from Invitrogen, catalogue No. B855-02) and purified via affinity chromatography, was used as enzyme. The substrate used for the kinase reaction was the biotinylated peptide biotin-Ahx-[…] (C-terminus in amide form) which can be purchased, for example, from Biosyntan GmbH (Berlin-Buch). For the assay, 11 different concentrations in the range from 20 µM to 0.073 nM were prepared from a 2 mM DMSO solution of the test substance. 50 nl of the respective 100fold concentrated test compound solutions in DMSO were pipetted into a black low-volume 384-well microtitre plate or a black 1536-well microtiter plate (both Greiner Bio-One, Frickenhausen, Germany), 2 µl of a solution of IRAK4 in assay buffer [50 mM HEPES pH 7.5, 5mM MgCl2, 1.0 mM dithiothreitol, 30 µM activated sodium orthovanadate, 0.1% (w/v) of bovine gamma-globulin (BGG) 0.04% (v/v) nonidet-P40 (Sigma)] were added and the mixture was incubated for 15 min to allow prebinding of the substances to the enzyme prior to the kinase reaction. […] The concentration of the IRAK4 was adjusted to the respective activity of the enzyme and set such that the assay was carried out in the linear range. Typical concentrations were in the order of about 0.2 nM. The reaction was stopped by addition of 5 µl of a solution of TR-FRET detection reagents [0.1 µM streptavidin-XL665 (Cisbio Bioassays; France, catalogue No. 610SAXLG)] and 1.5 nM anti-phosphoserine antibody [Merck Millipore, "STK Antibody", catalogue No. 35-002] and 0.6 nM LANCE EU-W1024-labelled anti-mouse-IgG antibody (Perkin-Elmer, product No. AD0077; alternatively, it is possible to use a terbium cryptate-labelled anti-mouse-IgG antibody from Cisbio Bioassays) in aqueous EDTA solution (100 mM EDTA, 0.4 % [w/v] bovine serum albumin [BSA] in 25 mM HEPES pH 7.5). The resulting mixture was incubated at 22°C for 1 h to allow formation of a complex of the biotinylated phosphorylated substrate and the detection reagents. The amount of the phosphorylated substrate was then evaluated by measuring the resonance energy transfer from europium chelate-labelled anti-mouse-IgG antibody to streptavidin-XL665. To this end, the fluorescence emissions at 620 nm and 665 nm were measured after excitation at 350 nm in a TR-FRET measuring instrument, for example a Rubystar (BMG Labtechnologies, Offenburg, Germany) or a Viewlux (Perkin-Elmer). The ratio of the emissions at 665 nm and 622 nm was taken as a measure of the amount of phosphorylated substrate. The data were normalized (enzyme reaction without test substance = 0% inhibition; all other assay components but no enzyme = 100% inhibition).
For orientation: In TR-FRET formats the signal depends on donor and acceptor labels being close together.

The term IC50 denotes the midpoint of a concentration-inhibition curve. Low readings indicate higher potency, high ones lower potency. `CC(C)(O)C1CCN(c2nc(NC3CCCS(=O)(=O)C3)nc3c2cnn3-c2cccc(C(F)(F)F)c2)CC1` (stereo not shown) [Example I-10, 2-(1-{6-[(1,1-dioxidotetrahydro-2H-thiopyran-3-yl)amino]-1-[3-(trifluoromethyl)phenyl]-1H-pyrazolo[3,4-d]pyrimidin-4-yl)piperidin-4-yl)propan-2-ol] yielded an IC50 of 131 nM. With `CC(C)(O)C1CCN(c2nc(N[C@H]3CCCNC3=O)nc3c2cnn3-c2cccc(C(F)(F)F)c2)CC1` [Example I-11-1, (3S)-3-({4-[4-(2-hydroxypropan-2-yl)piperidin-1-yl]-1-[3-(trifluoromethyl)phenyl]-1H-pyrazolo[3,4-d]pyrimidin-6-yl}amino)piperidin-2-one], it took 139 nM to reach half-maximal inhibition (IC50). In the case of `CC(C)(O)C1CCN(c2nc(N[C@@H]3CCCNC3=O)nc3c2cnn3-c2cccc(C(F)(F)F)c2)CC1` [Example I-11-2, (3R)-3-({4-[4-(2-hydroxypropan-2-yl)piperidin-1-yl]-1-[3-(trifluoromethyl)phenyl]-1H-pyrazolo[3,4-d]pyrimidin-6-yl}amino)piperidin-2-one] it was 151 nM; in that of `CC(C)(O)C1CCN(c2nc(N[C@H]3CCNC3=O)nc3c2cnn3-c2cccc(C(F)(F)F)c2)CC1` [Example I-12, (3S)-3-({4-[4-(2-hydroxypropan-2-yl)piperidin-1-yl]-1-[3-(trifluoromethyl)phenyl]-1H-pyrazolo[3,4-d]pyrimidin-6-yl}amino)pyrrolidin-2-one], 51.2 nM; in that of `CN1CC[C@@H](Nc2nc(N3CCC(C(C)(C)O)CC3)c3cnn(-c4cccc(C(F)(F)F)c4)c3n2)C1` [Example I-13-2, 2-[1-(6-{[(3R)-1-methylpyrrolidin-3-yl]amino}-1-[3-(trifluoromethyl)phenyl]-1H-pyrazolo[3,4-d]pyrimidin-4-yl)piperidin-4-yl]propan-2-ol], 32.7 nM. As for `CC(C)(O)C1CCN(c2nc(N[C@@H]3CCNC3=O)nc3c2cnn3-c2cccc(C(F)(F)F)c2)CC1` [Example I-15, (3R)-3-({4-[4-(2-hydroxypropan-2-yl)piperidin-1-yl]-1-[3-(trifluoromethyl)phenyl]-1H-pyrazolo[3,4-d]pyrimidin-6-yl}amino)pyrrolidin-2-one], the figure is 62 nM; as for `CC(C)(O)C1CCN(c2nc(N[C@H]3CCOC3)nc3c2cnn3-c2cccc(C(F)(F)F)c2)CC1` [Example I-16-1, 2-(1-{6-[(3S)-tetrahydrofuran-3-ylamino]-1-[3-(trifluoromethyl)phenyl]-1H-pyrazolo[3,4-d]pyrimidin-4-yl}piperidin-4-yl)propan-2-ol], 19.4 nM. In the case of `CC(C)(O)C1CCN(c2nc(N[C@@H]3CNC(=O)C3(C)C)nc3c2cnn3-c2cccc(C(F)(F)F)c2)CC1` [Example I-17, (4S)-4-({4-[4-(2-hydroxypropan-2-yl)piperidin-1-yl]-1-[3-(trifluoromethyl)phenyl]-1H-pyrazolo[3,4-d]pyrimidin-6-yl}amino)-3,3-dimethylpyrrolidin-2-one] it was 442 nM; in that of `CCC1(O)CN(c2nc(N[C@H]3CCN(C)C3)nc3c2cnn3-c2cccc(C(F)(F)F)c2)C1` [Example I-18, 3-ethyl-1-(6-{[(3S)-1-methylpyrrolidin-3-yl]amino}-1-[3-(trifluoromethyl)phenyl]-1H-pyrazolo[3,4-d]pyrimidin-4-yl)azetidin-3-ol], 18.4 nM.

With `CCC1(O)CN(c2nc(NC3CCS(=O)(=O)CC3)nc3c2cnn3-c2cccc(C(F)(F)F)c2)C1` [Example I-19, 1-{6-[(1,1-dioxidotetrahydro-2H-thiopyran-4-yl)amino]-1-[3-(trifluoromethyl)phenyl]-1H-pyrazolo[3,4-d]pyrimidin-4-yl}-3-ethlazetidin-3-ol], the concentration for half-maximal inhibition (IC50) came out at 27 nM.

Molecule `O=C1C[C@@H](Nc2nc(N3C[C@H](O)[C@@H](O)C3)c3cnn(-c4cccc(C(F)(F)F)c4)c3n2)CN1` [Example I-20-1, (4R)-4-({4-[(3S,4S)-3,4-dihydroxypyrrolidin-1-yl]-1-[3-(trifluoromethyl)phenyl]-1H-pyrazolo[3,4-d]pyrimidin-6-yl}amino)pyrrolidin-2-one] showed an IC50 of 278 nM. Consider `O=C1C[C@H](Nc2nc(N3C[C@H](O)[C@@H](O)C3)c3cnn(-c4cccc(C(F)(F)F)c4)c3n2)CN1` [Example I-20-2, (4S)-4-({4-[(3S,4S)-3,4-dihydroxypyrrolidin-1-yl]-1-[3-(trifluoromethyl)phenyl]-1H-pyrazolo[3,4-d]pyrimidin-6-yl}amino)pyrrolidin-2-one], for which inhibition was half-maximal at 14.9 nM (IC50).

Regarding `O=C1C[C@H](Nc2nc(N3CC[C@@H](N4CCOCC4)C3)c3cnn(-c4cccc(C(F)(F)F)c4)c3n2)CN1` [Example I-21, (4S)-4-({4-[(3R)-3-(morpholin-4-yl)pyrrolidin-1-yl]-1-[3-(trifluoromethyl)phenyl]-1H-pyrazolo[3,4-d]pyrimidin-6-yl}amino)pyrrolidin-2-one], the IC50 is 78 nM.

In turn, `CC(C)(O)CC1CCN(c2nc(N[C@@H]3CNC(=O)C3)nc3c2cnn3-c2cccc(C(F)(F)F)c2)CC1` [Example I-24, (4S)-4-({4-[4-(2-hydroxy-2-methylpropyl)piperidin-1-yl]-1-[3-(trifluoromethyl)phenyl]-1H-pyrazolo[3,4-d]pyrimidin-6-yl}amino)pyrrolidin-2-one] came in with an IC50 of 7.08 nM. `CN1CC[C@@H](Nc2nc(N3CCC(CC(C)(C)O)CC3)c3cnn(-c4cccc(C(F)(F)F)c4)c3n2)C1` [Example I-25-1, 2-methyl-1-[1-(6-{[(3R)-1-methylpyrrolidin-3-yl]amino}-1-[3-(trifluoromethyl)phenyl]-1H-pyrazolo[3,4-d]pyrimidin-4-yl)piperidin-4-yl]propan-2-ol] gave an IC50 of 40.3 nM. `CN1CC[C@H](Nc2nc(N3CCC(CC(C)(C)O)CC3)c3cnn(-c4cccc(C(F)(F)F)c4)c3n2)C1` [Example I-25-2, 2-methyl-1-[1-(6-{[(3S)-1-methylpyrrolidin-3-yl]amino}-1-[3-(trifluoromethyl)phenyl]-1H-pyrazolo[3,4-d]pyrimidin-4-yl)piperidin-4-yl]propan-2-ol] gave an IC50 of 12 nM. In the case of `O=S1(=O)CCN(C2CN(c3nc(N[C@@H]4CCOC4)nc4c3cnn4-c3cccc(C(F)(F)F)c3)C2)CC1` [Example I-26-1, 4-[3-(1,1-dioxidothiomorpholin-4-yl)azetidin-1-yl]-N-[(3R)-tetrahydrofuran-3-yl]-1-[3-(trifluoromethyl)phenyl]-1H-pyrazolo[3,4-d]pyrimidin-6-amine] it was 37.3 nM; in that of `O=S1(=O)CCN(C2CN(c3nc(N[C@H]4CCOC4)nc4c3cnn4-c3cccc(C(F)(F)F)c3)C2)CC1` [Example I-26-2, 4-[3-(1,1-dioxidothiomorpholin-4-yl)azetidin-1-yl]-N-[(3S)-tetrahydrofuran-3-yl]-1-[3-(trifluoromethyl)phenyl]-1H-pyrazolo[3,4-d]pyrimidin-6-amine], 57.8 nM; in that of `O=C1C[C@H](Nc2nc(N3CCOCC3)c3cnn(-c4cccc(C(F)(F)F)c4)c3n2)CN1` [Example I-28, (4S)-4-({4-(morpholin-4-yl)-1-[3-(trifluoromethyl)phenyl]-1H-pyrazolo[3,4-d]pyrimidin-6-yl}amino)pyrrolidin-2-one], 23.9 nM.
